Results taken from patent US5776927A, “Methionine sulfone and S-substituted cysteine sulfone derivatives as enzyme inhibitors” (Corvas International, Inc., priority 1994, dated 1998).

Key:
[1] = tested on: thrombotic occlusion of the rat carotid artery; assay: Rat model of FeCl3-induced platelet-dependent arterial thrombosis; type: in vivo, rat (male Harlan Sprague Dawley); settings: i.v. bolus
Excerpt: Kurz, K. D., Main, B. W., and Sandusky, G. E., Thromb. […] In this model a platelet-rich, occlusive thrombus is formed in a segment of the rat carotid artery treated locally with a fresh solution of FeCl3 absorbed to a piece of filter paper. The FeCl3 is thought to diffuse into the treated segment of artery and causes de-endothelialization of the affected vessel surface. […] The effect of a test compound on the incidence of occlusive thrombus formation following the application of the FeCl3 is monitored by ultrasonic flowtometry and is used as the primary end point. The use of flowtometry to measure carotid artery blood flow, is a modification of the original procedure in which thermal detection of clot formation was employed. Kurz, K. D., Main, B. W., and Sandusky, G. E., Thromb. […] Male Harlan Sprague Dawley rats (420-450 g) were acclimated at least 72 hours prior to use and fasted for 12 hours prior to surgery with free access to water. […] Blood pressure, blood flow, heart rate, and respiration were monitored for 60 minutes. The incidence of occlusion (defined as the attainment of zero blood flow) was recorded as the primary end point. […] This allows a direct comparison of the antithrombotic efficacy of BzlSO2 -[…] with other antithrombotic agents which have also been evaluated in this model as described above.

citrated human plasma = assay: Ex vivo anticoagulant effect, activated partial thromboplastin time (APTT), human plasma; settings: citrated pooled normal human plasma; control clotting time 28.3 sec set to 1.0
Procedure: (§1) The ex vivo anticoagulant effects of BzlSO2 -Met(SO2)-Pro-Arg-al was determined by measuring the prolongation of the activated partial thromboplastin time (APTT) over a broad concentration range of the added inhibitor, using pooled normal human and rat plasma. Fresh frozen citrated pooled normal human plasma was obtained from George King Biomedical, Overland Park, Kans. Pooled normal rat plasma was prepared from citrated whole blood collected from anesthetized rats using standard procedures. The plasma was flash frozen and stored at -80° C. until use. Measurements APTT was made using the Coag-A-Mate RA4 automated coagulometer (General Diagnostics, Organon Technica, Oklahoma City, Okla.) using the Automated APTT reagent (Organon Technica, Durham, N.C.) as the initiator of clotting according to the manufacturers instructions.
(§2) The assay was conducted by making a series of dilutions of the test compounds in rapidly thawed plasma followed by adding 200 microliters to the wells of the assay carousel.

citrated rat plasma = assay: Ex vivo anticoagulant effect, activated partial thromboplastin time (APTT), rat plasma; settings: control clotting time 19.75 sec set to 1.0
Procedure: as §1, §2

CS(=O)(=O)CC[C@H](NS(=O)(=O)Cc1ccccc1)C(=O)N1CCC[C@H]1C(=O)N[C@H](C=O)CCCNC(=N)N [Example 27, N-benzylsulfonyl-L-methionine sulfone-L-proline-L-argininal]
efficacy in preventing thrombus formation (result in words) [1]: reduction in the incidence of thrombotic occlusion
prolongation of the APTT (citrated human plasma): prolonged the APTT in a dose dependent manner in both rat and human plasma
prolongation of the APTT (citrated rat plasma): prolonged the APTT in a dose dependent manner in both rat and human plasma
